Assay results reported in patent US6911474B2, “Methods, compounds, and compositions for reducing body fat and modulating fatty acid metabolism” (The Regents of the University of California, priority 2001, dated 2005).

Columns and labels:
[1] = Body (rectal) temperature; assay type: in vivo, rat; conditions: 5 or 20 mg per kg; FIG. 4e
Method: (§1) Other behavioral assays. The elevated plus maze test was conducted as described (Navarro et al., Neuroreport, 8:491-496 (1997)) after the administration of vehicle or OEA (20 mg per kg, i.p.). Horizontal activity in an open field (Beltramo et al., J. Neurosci., 20:3401-3407 (2000)) and pain threshold in the hot plate test (55° C.) (Beltramo et al., Science, 277:1094-1097 (1997)) were measured 15 min after injection of vehicle or OEA (20 mg per kg). Rectal temperature was measured using a digital thermometer (Martin-Calderón et al., Eur. J. Pharmacol., 344:77-86. (1998)).

[2] = system: c-fos mRNA; test: c-fos mRNA in situ hybridization in brain; assay type: in vivo, rat; conditions: 10 mg per kg, i.p., 60 min
Method: In situ hybridization. Rats were accustomed to the handling and injection procedure for five days. On day six, vehicle or drug OEA (10 mg per kg, i.p.), or oleic acid (10 mg per kg) was administered, and the rats killed 60 min later by decapitation under anesthesia. In situ hybridization analyses were conducted using ^35S-labeled cRNA probes for c-fos (Guthrie et al., Proc. Natl. Acad. Sci. U.S.A., 90:3329-3333 (1993)) and choline acetyl transferase (ChAT) (Lauterbom et al., Brain Res. Mol. Brain Res., 17:59-69 (1993)). Average hybridization densities were determined from at least three tissue sections per rat. Statistical significance was evaluated using one-way analysis of variance (ANOVA) followed by the Tukey-Kramer post-hoc test for paired comparisons.

[3] = Open field activity test; assay type: in vivo, rat; conditions: at a dose substantially higher than those required to produce hypophagia; FIG. 4h
Method: as §1

[4] = Food intake after intracerebroventricular administration to 24 h food-deprived rats; assay type: in vivo, rat
Method: (§2) Feeding experiments. Acute experiments. Food intake was measured in 24-h food-deprived rats (Navarro et al., J. Neurochem., 67:1982-1991 (1996)), administering drugs 15 min before food presentation. Subchronic experiments. Ad libitum fed rats received vehicle injections for three days. On day four, the animals were divided in two equal groups and gave them daily injections of vehicle or OEA (5 mg per kg at 1900 h) for 7 consecutive days, while measuring body weight, food intake and water intake.

[5] = biological target: T1, cannabinoid receptors (rat brain membranes) (Rattus norvegicus, UniProt P20272); test: Displacement of cannabinoid binding to rat brain membranes in vitro
T1 construct: from tissue; host or cells: rat brain membranes
T1 sequence (P20272 whole entry): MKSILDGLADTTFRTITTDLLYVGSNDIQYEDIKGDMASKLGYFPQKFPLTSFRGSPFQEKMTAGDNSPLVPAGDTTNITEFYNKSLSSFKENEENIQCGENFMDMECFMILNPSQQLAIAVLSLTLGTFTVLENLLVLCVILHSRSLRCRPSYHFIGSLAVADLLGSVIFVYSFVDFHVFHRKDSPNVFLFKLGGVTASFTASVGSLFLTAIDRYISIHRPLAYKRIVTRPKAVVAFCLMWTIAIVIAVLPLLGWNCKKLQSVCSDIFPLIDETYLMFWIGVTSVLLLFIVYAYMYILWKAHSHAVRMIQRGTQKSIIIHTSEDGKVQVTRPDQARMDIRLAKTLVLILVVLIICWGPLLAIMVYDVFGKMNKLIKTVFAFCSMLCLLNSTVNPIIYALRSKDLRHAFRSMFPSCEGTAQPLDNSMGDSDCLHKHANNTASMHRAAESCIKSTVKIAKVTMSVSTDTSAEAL

[6] = Subchronic administration: food intake, body weight and water intake; assay type: in vivo, rat; conditions: 5 mg per kg, i.p., daily for seven days
Method: as §2
OEA was subchronically administered to rats.

[7] = system: Astrocyte; test: [14C]oleate oxidation to ketone bodies in astrocytes; assay type: cell-based, rat
[8] = Circulating OEA level after i.p. administration (HPLC/MS); assay type: in vivo; conditions: rat, plasma, ip, 1 hr after 5 mg per kg, read-out: circulating OEA levels
Method: HPLC/MS analyses. Plasma was prepared from blood obtained by cardiac puncture (Giuffrida et al., Anal. Biochem., 280:87-93 (2000)) and CSF was collected from the cisterna magna using a 27G ½ needle (Precisionglide, USA). FAEs and NAPE were extracted from tissues with methanol/chloroform and fractionated by column chromatography (Giuffrida et al., “Lipid Second Messengers” (ed. Laychock, S. G. & Rubin, R. P.) 113-133 (CRC Press LLC, Boca Raton, Fla., 1998)). FAEs were quantified by HPLC/MS, using an isotope dilution method (Giuffrida et al., Anal. Biochem., 280:87-93 (2000)). Individual NAPE species were identified and quantified by HPLC/MS, using an external standard method (Calignano et al., Nature, 408:96-101 (2000)).
OEA elicits hypophagia at physiologically relevant doses. […] Thus, the concentrations reached by OEA in blood during starvation can be sufficient to elicit notable behavioral responses.

[9] = Hot plate test, pain threshold; assay type: in vivo, rat; conditions: FIG. 4f
Method: as §1

[10] = Acute food intake in 24-h food-deprived rats after i.p. administration; assay type: in vivo, rat
Method: as §2
The effects of systemically administered OEA on food intake in rats can be assessed using a 24 h fast. […] To define the selectivity of this response, various OEA analogs were evaluated for their ability to produce hypophagia.

[11] = Food intake in capsaicin-treated rats (sensory fibers destroyed); assay type: in vivo, rat; conditions: OEA 10 mg per kg, i.p., FIG. 6a,c
Text: Chemicals. FAEs and [^2H4] FAEs were synthesized in the laboratory (Giuffrida et al., “Lipid Second Messengers” (ed. Laychock, S. G. & Rubin, R. P.) 113-133 (CRC Press LLC, Boca Raton, Fla., 1998)); 1,2-dioleyl-sn-glycero-phosphoethanolamine-N-oleyl was purchased from Avanti Polar Lipids (Alabaster, Ala.); SR141716A was provided by RBI (Natick, Mass.) as part of the Chemical Synthesis Program of the NIMH (N01MH30003); SR144528 was a generous gift of Sanofi Recherche; all other drugs were from Tocris (Ballwin, Mo.) or Sigma (Saint Louis, Mo.). FAE were dissolved in dimethylsulphoxide (DMSO) and administered in 70% DMSO in sterile saline (acute treatments) or 5% Tween 80/5% propylenglycol in sterile saline (subchronic treatments) (1 ml per kg, i.p.). Capsaicin was administered in 10% Tween 80/10% ethanol/80% saline; SR141716A, SR144528, CCK-8 and CP-93129 in 5% Tween 80/5% propylenglycol/90% saline (1 ml per kg, i.p.).
These findings support the hypothesis that OEA causes hypophagia by acting at a peripheral site, and that sensory fibers are required for this effect.

[12] = system: Adipocyte; test: Lypolysis (glycerol release) in adipocytes; assay type: cell-based, rat

CCCCCCCC/C=C\CCCCCCCC(=O)NCCO [OEA, Oleoylethanolamide]
body temperature [1]: did not alter
c-fos expression in other brain regions [2]: not significantly affected
c-fos mRNA levels in the PVN, supraoptic nucleus and NST [2]: highly localized increase
motor activity [3]: reduced
effect on food intake after direct injection into the brain ventricles [4]: ineffective
food intake, 60 min ([4]; 0.4 μg per animal): 4.8 ± 0.4
food intake, 120 min ([4]; 0.4 μg per animal): 6.6 ± 0.4
food intake, 240 min ([4]; 0.4 μg per animal): 8.4 ± 0.4
food intake, 60 min ([4]; 2 μg per animal): 4.9 ± 0.4
food intake, 120 min ([4]; 2 μg per animal): 6.6 ± 0.6
food intake, 240 min ([4]; 2 μg per animal): 8.7 ± 0.5
food intake, 60 min ([4]; 10 μg per animal): 5.9 ± 0.2
food intake, 120 min ([4]; 10 μg per animal): 8.1 ± 0.4
food intake, 240 min ([4]; 10 μg per animal): 9.6 ± 0.7
displacement of cannabinoid binding [5]: did not displace
cumulative food intake ([6]; FIG. 5a): small, but significant decrease
weight gain ([6]; FIG. 5b,c): profound inhibition
water intake ([6]; FIG. 5d): did not affect
Stimulatory effect of 10 μM OEA (%) on [14C]oleate oxidation to ketone bodies ([7]; Astrocyte, 10 μM, 30 min incubation): 2 ± 6%
fatty acid oxidation in words ([7]; brain-derived astroglial cell cultures): no effect
concentration at 1 hr [8]: 16.1 ± 2.6 nM
pain threshold [9]: did not alter
half-maximally effective dose for hypophagia [10]: 5 mg per kg
suppression of food intake (hypophagia) ([10]; 24-h food-deprived rats, 15 min before food presentation, FIG. 4a,b): dose- and time-dependent suppression
food intake response of capsaicin-treated rats [11]: failed to respond
Stimulatory effect of 10 μM OEA (%) on lypolysis (glycerol release) ([12]; Adipocyte, 10 μM, 30 min incubation): 38 ± 16%
mobilization of triacylglycerol stores ([12]; primary white adipose tissue cells): significant mobilization
